Test results taken from patent US6822097B1, “Compounds and methods of uses” (Amgen, Inc., priority 2002, dated 2004).
Where a name gives a salt, the structure may show the parent alone.

melting point | SMILES
> 300 °C | O=c1[nH]c2ccccc2cc1-c1csc(NS(=O)(=O)c2ccc(Cl)cc2)n1 [Example 8789, 4-Chloro-N-(4-(2-oxo-1,2-dihydro-3-quinolinyl)-1,3-thiazol-2-yl)benzenesulfonamide]
> 250 °C | COc1cc2[nH]c(=O)c(-c3csc(-c4ccncc4)n3)c(N)c2cc1OC [Example 19, 3-[2-(4-pyridyl)-4-thiazolyl]-4-amino-6,7-dimethoxy-2(1H)-quinolinone]
> 300 °C | O=c1[nH]c2ccccc2cc1-c1csc(NS(=O)(=O)c2ccccc2)n1 [Example 70, 3-{2-[(Phenylsulfonyl)amino]-1,3-thiazol-4-yl}hydroquinolin-2-one]
> 300 °C | CS(=O)(=O)c1ccc(-c2csc(-c3cc4ccccc4[nH]c3=O)n2)cc1 [Example 112, 3-{4-[4-(Methylsulfonyl)phenyl]-1,3-thiazol-2-yl}hydroquinolin-2-one]
> 220 °C | O=c1[nH]c2cc3c(cc2cc1-c1csc(-c2cccnc2)n1)OCO3 [Example 9, 3-[2-(3-Pyridyl)-4-thiazolyl]-6,7-(methylenedioxyl)-2(1H)-quinolinone]
295 to 300 °C (dec.) | COc1ccc(CC(=O)Nc2nc(-c3cc4ccccc4[nH]c3=O)cs2)c(OC)c1 [Example 73, 2-(2,4-Dimethoxyphenyl)-N-[4-(2-oxo(3-hydroquinolyl))(1,3-thiazol-2-yl)]acetamide]
> 300 °C | O=c1[nH]c2ccccc2cc1-c1nc(-c2ccncc2)cs1 (as salt: salt) [Example 111, 3-(4-Pyridin-4-yl-thiazol-2-yl)-1H-quinolin-2-one]
> 250 °C | Nc1c(-c2csc(-c3ccncc3)n2)c(=O)[nH]c2ccccc12 (as salt: salt) [Example 6, 3-[2-(4-Pyridyl)-4-thiazolyl]-4-amino-2(1H)-quinolinone]
> 220 °C | Nc1nc(-c2c(-c3ccccc3)c3ccccc3[nH]c2=O)cs1 [Example 23, 3-(2-Amino-4-thiazolyl)-4-phenyl-2(1H)-quinolinone]
210 °C (dec.) | CCN(CC)C(=O)c1cccc2[nH]c(=O)c(-c3csc(-c4ccncc4)n3)cc12 [Example 11, N,N-Diethyl-1,2-dihydro-2-oxo-3-[2-(4-pyridyl)-4-thiazolyl]-5-quinolinecarboxamide]
> 250 °C | COc1cc2[nH]c(=O)c(-c3csc(-c4cccnc4)n3)c(N)c2cc1OC [Example 20, 3-[2-(3-Pyridyl)-4-thiazolyl]-4-amino-6,7-dimethoxy-2(1H)-quinolinone]
> 300 °C | CN(C(=O)c1ccccc1)c1nc(-c2cc3ccccc3[nH]c2=O)cs1 [Example 76, N-Methyl-N-[4-(2-oxo(3-hydroquinolyl))(1,3-thiazol-2-yl)]benzamide]
242 to 247 °C | CN1CCN(C(=O)c2ccc3cc(-c4csc(N(C)S(=O)(=O)c5ccccc5)n4)c(=O)[nH]c3c2)CC1 [Example 8765, N-Methyl-N-{4-[7-(4-methyl-piperazine-1-carbonyl)-2-oxo-1,2-dihydro-quinolin-3-yl]-thiazol-2-yl}-benzenesulfonamide]
> 300 °C | CN(c1nc(-c2cc3ccccc3[nH]c2=O)cs1)S(=O)(=O)c1cn(C)cn1 [Example 8732, N,1-Dimethyl-N-(4-(2-oxo-1,2-dihydro-3-quinolinyl)-1,3-thiazol-2-yl)-1H-imidazole-4-sulfonamide]
237 to 239 °C | O=c1[nH]c2ccccc2cc1-c1csc(NCCN2CCOCC2)n1 (as salt: hydrobromid) [Example 80, 3-{2-[(2-Morpholin-4-ylethyl)amino]-1,3-thiazol-4-yl}hydroquinolin-2-one hydrobromide]
228 to 232 °C | O=c1[nH]c2ccccc2cc1-c1csc(N(Cc2ccccc2)S(=O)(=O)c2ccccc2)n1 [Example 8728, N-Benzyl-N-[4-(2-oxo-1,2-dihydro-quinolin-3-yl)-thiazol-2-yl]-benzenesulfonamide]
> 250 °C | O=c1[nH]c2ccccc2c(-c2ccccc2)c1-c1csc(-c2ccncc2)n1 [Example 4, 3-[2-(4-Pyridyl)-4-thiazolyl]-4-phenyl-2(1H)-quinolinone]
> 300 °C | COC(=O)c1ccc2cc(-c3csc(N(C)S(=O)(=O)c4ccccc4)n3)c(=O)[nH]c2c1 [Example 8763]
242 to 244 °C | Cc1onc(-c2ccccc2)c1-c1csc(-c2cc3ccccc3[nH]c2=O)n1 [Example 116, 3-[4-(5-Methyl-3-phenylisoxazol-4-yl)-1,3-thiazol-2-yl]hydroquinolin-2-one]
247 to 249 °C | CN(c1nc(-c2cc3ccccc3[nH]c2=O)cs1)S(=O)(=O)c1cccc(F)c1 [Example 8731, 3-Fluoro-N-methyl-N-[4-(2-oxo-1,2-dihydro-quinolin-3-yl)-thiazol-2-yl]-benzenesulfonamide]
> 220 °C | CN1CCN(c2ccc3[nH]c(=O)c(-c4csc(-c5ccncc5)n4)c(N)c3c2)CC1 [Example 22, 3-[2-(4-Pyridyl)-4-thiazolyl]-4-amino-6-(4-methyl-1-piperazinyl)-2(1H)-quinolinone]
199 to 202 °C | Nc1c(-c2csc(-c3ccncc3)n2)c(=O)[nH]c2ccc(N3CCCCC3)cc12 [Example 7, 3-[2-(4-Pyridyl)-4-thiazolyl]-4-amino-6-(1-piperidinyl)-2(1H) -quinolinone]
221 to 224 °C (dec.) | O=c1[nH]c2ccccc2cc1-c1csc(NCc2ccco2)n1 (as salt: hydrobromid) [Example 79, 3-{2-[(2-Furylmethyl)amino]-1,3-thiazol-4-yl}hydroquinolin-2-one hydrobromide]
> 220 °C | Nc1c(-c2csc(-c3ccncc3)n2)c(=O)[nH]c2ccc(Cl)cc12 [Example 21, 3-[2-(4-Pyridyl)-4-thiazolyl]-4-amino-6-chloro-2(1H)-quinolinone]
200 to 202 °C | CCN(CC)C(=O)c1ccc2cc(-c3csc(N(C)S(=O)(=O)c4ccccc4)n3)c(=O)[nH]c2c1 [Example 8767, N,N-Diethyl-3-(2-(methyl(phenylsulfonyl)amino)-1,3-thiazol-4-yl)-2-oxo-1,2-dihydro-7-quinolinecarboxamide]
280 to 282 °C | CN(c1nc(-c2cc3ccccc3[nH]c2=O)cs1)S(=O)(=O)c1ccc(Br)cc1 [Example 8730, 4-Bromo-N-methyl-N-[4-(2-oxo-1,2-dihydro-quinolin-3-yl)-thiazol-2-yl]-benzenesulfonamide]
> 250 °C | Cc1c(-c2csc(-c3ccncc3)n2)c(=O)[nH]c2ccccc12 [Example 3, 3-[2-(4-Pyridyl)-4-thiazolyl]-4-methyl-2(1H)-quinolinone]
214 to 216 °C | C=CCN(c1nc(-c2cc3ccccc3[nH]c2=O)cs1)S(=O)(=O)c1ccccc1 [Example 8729, N-Allyl-N-[4-(2-oxo-1,2-dihydro-quinolin-3-yl)-thiazol-2-yl]-benzenesulfonamide]
279 to 282 °C | COc1cccc(-c2csc(-c3cc4ccccc4[nH]c3=O)n2)c1 [Example 115, 3-[4-(3-Methoxyphenyl)-1,3-thiazol-2-yl]hydroquinolin-2-one]
272 to 278 °C | O=C(Cc1ccccc1)Nc1nc(-c2cc3ccccc3[nH]c2=O)cs1 [Example 72, N-[4-(2-Oxo(3-hydroquinolyl))(1,3-thiazol-2-yl)]-2-phenylacetamide]
